Results as given in PubChem BioAssay (NCI).
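Tested at 5 concentrations; 48 h exposure; 96-well plates; endpoints linearly interpolated, else capped at highest concentration. GI50 = concentration required for 50% inhibition of growth. TGI denotes the concentration required for complete inhibition of growth.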

What was measured:
Assay in all cases: NCI tumour cell line growth inhibition, 48 h
A549 NSCLC = system: A549 NSCLC
ACHN renal = system: ACHN renal
CCRF-CEM leukemia = system: CCRF-CEM leukemia
M14 melanoma = system: M14 melanoma
NCI-H226 lung = system: NCI-H226 lung
NCI-H23 lung = system: NCI-H23 lung
NCI-H460 lung = system: NCI-H460 lung
OVCAR-8 ovarian = system: OVCAR-8 ovarian
SR leukemia = system: SR leukemia
OVCAR-3 ovarian = system: OVCAR-3 ovarian

Compound	TGI (A549 NSCLC) [µM]	TGI (ACHN renal) [µM]	TGI (CCRF-CEM leukemia) [µM]	TGI (M14 melanoma) [µM]	TGI (NCI-H226 lung) [µM]	TGI (NCI-H23 lung) [µM]	TGI (NCI-H460 lung) [µM]	TGI (OVCAR-8 ovarian) [µM]	TGI (SR leukemia) [µM]	TGI (OVCAR-3 ovarian) [µM]	GI50 (CCRF-CEM leukemia) [µM]	GI50 (M14 melanoma) [µM]	GI50 (NCI-H23 lung) [µM]	GI50 (SR leukemia) [µM]	GI50 (A549 NSCLC) [µM]	GI50 (ACHN renal) [µM]	GI50 (NCI-H226 lung) [µM]	GI50 (NCI-H460 lung) [µM]	GI50 (OVCAR-3 ovarian) [µM]	GI50 (OVCAR-8 ovarian) [µM]
CCOS(=O)(=O)c1ccc(-c2c3nc(c(-c4ccc(S(=O)(=O)OCC)cc4)c4ccc([nH]4)c(-c4ccc(S(=O)(=O)OCC)cc4)c4nc(c(-c5ccc(S(=O)(=O)OCC)cc5)c5ccc2[nH]5)C=C4)C=C3)cc1	> 31.6	> 31.6	> 31.6	> 31.6	> 100	> 31.6	> 31.6	> 31.6	> 31.6	–	–	–	–	–	–	–	–	–	–	–
COc1ccc(-c2nnc3n(C)c4ccccc4n3c2=O)cc1	> 100	> 100	> 100	> 100	> 100	> 100	> 100	> 100	> 100	–	–	–	–	–	–	–	–	–	–	–
COc1ccc([C@H]2CC3C(=O)N(c4ccc(OC)cc4)C(=O)C3c3[nH]c4ccccc4c32)cc1 (some centres not stated)	> 100	> 100	> 100	> 100	> 100	> 100	> 100	> 100	–	> 100	–	–	–	–	–	–	–	–	–	–
COc1ccc(N2C(=O)/C(=C/c3ccc(N(CCC#N)CCC#N)cc3)N=C2c2ccccc2)cc1	> 100	> 100	–	> 100	> 100	–	> 100	> 100	> 100	> 100	–	–	–	–	–	–	–	–	–	–
CC(=O)[C@@]1(c2ccccc2)CC2(CCN(C)CC2)O[C@H]1C	> 100	> 100	–	> 100	> 100	> 100	> 100	> 100	–	> 100	–	–	–	–	–	–	–	–	–	–
O=S(O)c1cc(Cl)c(O)c(Cl)c1	–	> 100	> 100	> 100	–	> 100	> 100	–	> 100	> 100	–	–	–	–	–	–	–	–	–	–
COc1cccc(OC)c1NC(=O)C(=O)Nn1c(NNC(=O)c2ccncc2)nc2ccccc2c1=O	> 100	> 100	> 100	> 100	> 100	> 100	> 100	> 100	–	> 100	–	–	–	–	–	–	–	–	–	–
N#CC1=C(N)N(/N=C/c2ccco2)C(c2ccco2)C1(C#N)C#N (configuration not stated)	56.2	30.2	19.2	43.6	37.7	35.8	–	41.6	39.3	39	–	–	–	–	–	–	–	–	–	–
O=C1CN(c2cccc(C(F)(F)F)c2)C(=O)CN1CCN1CC(=O)N(c2cccc(C(F)(F)F)c2)CC1=O	> 100	> 100	> 100	> 100	–	–	> 100	> 100	> 100	–	–	–	–	–	–	–	–	–	–	–
O=C(NC1C/C(=N/O)c2c(Br)sc(Br)c21)C(F)(F)F (configuration not stated)	96.9	> 100	48.5	> 100	97.7	> 100	97.2	63.2	–	> 100	–	–	–	–	–	–	–	–	–	–
Cn1c(=O)c2[nH]c(SC/C(=N/O)c3ccc(Br)cc3)nc2n(C)c1=O	–	–	57.1	> 100	–	4.75	–	–	> 100	–	14.3	45.5	2.08	2.83	–	–	–	–	–	–
C(=N\NC1=NCCN1)/c1ccc2ccccc2c1	29.5	33.7	41.8	–	51.2	51.1	29.5	35	> 100	32.9	–	–	–	–	–	–	–	–	–	–
O=c1c2c3c(sc2nc2n1NC=NN2)CCCC3	> 100	30.3	4.88	> 57	49.8	> 62.6	38.3	58.2	–	30.5	–	–	–	–	–	–	–	–	–	–
O=C1CC(c2ccccc2)n2c(nc3ccccc32)N1 (configuration not stated)	> 100	> 100	–	> 100	> 100	> 100	> 100	> 100	> 100	> 100	–	–	–	–	–	–	–	–	–	–
COC(=O)C1(Cc2ccccc2)Cc2cc3c(cc2C1O)CCC3 (configuration not stated)	59	31.9	60.1	–	41.3	38.4	> 100	65.4	> 100	31.7	–	–	–	–	–	–	–	–	–	–
CSC(C1c2ccccc2N(C)c2[nH]c(=O)n(C)c(=O)c21)S(=O)(=O)c1ccc(C)cc1 (configuration not stated)	> 100	–	> 100	–	> 100	> 100	–	> 100	–	> 100	–	–	–	–	–	–	–	–	–	–
CC1CN(CCO)CCN1c1ccccc1 (configuration not stated)	> 100	> 100	–	> 100	> 100	> 100	> 100	> 100	> 100	> 100	–	–	–	–	–	–	–	–	–	–
COc1ccc2c3/c(=C\c4ccc(N(C)C)cc4)c4ccccc4n3[n+](C)c2c1	–	–	2.09	–	1.68	0.722	28.8	2.33	–	0.369	0.051	–	0.0639	–	0.236	0.404	0.244	0.16	0.0358	0.0474
CCN(CC)CCC1CCCCN1CC(=O)N1c2cc(Cl)ccc2NC(=O)CC1C (configuration not stated)	> 100	> 100	> 100	> 100	> 100	> 100	> 100	> 100	–	> 100	–	–	–	–	–	–	–	–	–	–
Cc1nn2c(c1C#N)NNc1c-2sc(=N)nnc1=O	> 100	–	> 100	> 100	–	> 100	–	> 100	> 100	> 100	–	–	–	–	–	–	–	–	–	–
O=c1[nH]cnc2c1cnn2Cc1cnnn1COCCO	> 100	> 100	–	> 100	> 100	> 100	> 100	> 100	–	> 100	–	–	–	–	–	–	–	–	–	–
CCSc1nc(N/N=C/c2cccs2)c2cnn(CO)c2n1	24.1	22.6	–	22.9	9.09	17.3	18.6	14.9	26.7	19	–	–	–	–	–	–	–	–	–	–
Cc1nc2ccc(NC3OCC(O)C(O)C3O)cc2c(=O)n1-c1ccccc1 (configuration not stated)	–	> 100	–	–	> 100	> 100	> 100	> 100	> 100	> 100	–	–	–	–	–	–	–	–	–	–
